Read-outs that look alike come from different tables or passages of the source.
What was measured:
Human Platelet PLA2 = biological target: T1, Human Platelet PLA2 (Homo sapiens, UniProt P14555); test: in vitro isolated phospholipase A2 assay, human platelet PLA2; format: biochemical; details: for inhibition at 10 µM: read-out: % Inhibition at 10 μM HP
T1 construct: a) Semipurified human platelet acid extract PLA2 (in 10 mM sodium; from tissue; host or cells: human platelets (acid extract, semipurified)
T1 sequence (P14555 21-144): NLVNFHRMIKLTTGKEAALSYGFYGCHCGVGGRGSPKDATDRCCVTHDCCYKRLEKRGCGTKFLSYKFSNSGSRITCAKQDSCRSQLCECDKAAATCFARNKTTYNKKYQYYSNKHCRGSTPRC
Procedure: (§1) The compounds of the invention are tested in an in vitro isolated phospholipase A2 assay to determine the ability of the test compounds to inhibit the release of arachidonic acid from an arachidonic acid-containing substrate by the action of phospholipase A2 enzyme from human and non-human sources.
(§2) Into a 15 mL polypropylene tube are added the following:
(§3) ^6 Two human PLA2 enzymes are used:
a) Semipurified human platelet acid extract PLA2 (in 10 mM sodium
acetate buffer, pH 4.5). Remove protein precipitate by centrifugation at
about 2200 rpm for 10 minutes.
(§4) Incubate the 100 μL reaction mixture for 10 minutes at 37° C. in a shaking water bath. The reaction is terminated by the addition of 2 mL tetrahydrofuran, followed by vortexing. NH2 columns (100 μg/mL-Analytichem International) are conditioned with 0.5 mL tetrahydrofuran followed by 0.5 mL tetrahydrofuran/water (2 mL:0.1 mL, v/v).
(§5) The sample is loaded onto the columns and slowly drawn through them. The hydrolyzed arachidonic acid retained in the columns is eluted therefrom with 1 mL tetrahydrofuran/glacial acetic acid (2%). The arachidonic acid is transferred to scintillation vials and quantitated by β-counting analysis. A "total counts" sample is prepared by pipetting 25 μL ^3 H-arachidonate E. coli directly into a scintillation vial to which is added 1 mL tetrahydrofuran. 10 mL aquasol (scintillation cocktail) is added to all samples.

Human Synovial PLA2 = biological target: T2, Human Synovial PLA2 (Homo sapiens, UniProt P14555); test: in vitro isolated phospholipase A2 assay, human synovial fluid PLA2; format: biochemical; details: for inhibition at 10 µM: read-out: % Inhibition at 10 μM HSF
T2 construct: b) Purified human synovial fluid; from tissue; host or cells: human synovial fluid (purified)
T2 sequence (P14555 21-144): T1 sequence (P14555 21-144)
Procedure: as §1, §2, §3
b) Purified human synovial fluid.
as §4, §5

[1] = system: LTC4 (lipoxygenase pathway); test: in vivo murine zymosan peritonitis assay, LTC4; parameters: species or system mouse (male CD-1); details: for ED50: Mus musculus, po, standard drugs
Procedure: (§6) The compounds of the invention are evaluated for their ability to inhibit the lipoxygenase and/or cyclooxygenase pathways of arachidonic acid metabolism in the in vivo murine zymosan peritonitis assay.
(§7) Male CD-1 mice (8 weeks old) are placed in plastic boxes in groups of six. Animals are injected with 1 mL i.p. of either 1% zymosan in pyrogen free 0.9% saline or saline (unstimulated control). Compounds are dosed orally 1 hour prior to zymosan injection. Twenty minutes after zymosan injection, the mice are asphyxiated by CO2 inhalation and the peritoneal cavity is lavaged with 2 mL ice cold Hanks Balanced Salt Solution (HBSS) without CaCl2, MgSO4 . 7H2 O and MgCl2 . 6H2 O. Peritoneal lavage fluid from each mouse is removed by syringe and placed in 5 mL plastic test tubes put on ice and volume is noted. Preparation of samples for evaluation by ELISA is as follows: Samples are centrifuged at 800 xg for 15 minutes; 1 mL of the supernatant is added to 8 mL ice cold methanol and kept at -70° C. overnight to precipitate protein; and samples are then centrifuged at 800 xg for 15 minutes, followed by a drying procedure in a Savant speed vac concentrator. The samples are reconstituted with 1 mL ice cold ELISA buffer and stored at -70° C. until assayed. The assay for eicosanoids (LTC4 and 6-keto-PGF1α) is performed according to conventional ELISA procedures.
(§8) Compounds to be tested orally are suspended in 0.5% Tween 80. Compounds to be tested intraperitoneally are suspended in 0.5% methylcellulose in 0.9% saline.
(§9) The total metabolite level in lavage fluid/mouse is calculated and the significance is determined by a one-way analysis of variance with LSD comparisons to control (p≤0.05). Drug effects are expressed as a percent change from control values.

[2] = system: 6-keto-PGF1α /TxB2 (cyclooxygenase pathway); test: in vivo murine zymosan peritonitis assay, 6-keto-PGF1α /TxB2; parameters: species or system mouse (male CD-1); details: for ED50: Mus musculus, po, read-out: ED50 6-keto-PGF1α /TxB2
Procedure: as §6, §7, §8, §9

[3] = system: T×B2 synthesis by rat glycogen-elicited polymorphonuclear leukocytes (PMN); test: inhibition of synthesis of the cyclooxygenase product TxB2 by rat polymorphonuclear leukocytes; format: cell-based; details: Leukocyte
Procedure: The exudate is centrifuged at 400 xg for 10 minutes. The supernatant fluid is discarded and the cell pellet is resuspended to a concentration of 2.0×10^7 cells/mL in HBSS containing Ca^++ and Mg^++ and 10 μM L-cysteine. […] The reaction is terminated by centrifugation and pelleting cells. Supernatants are then analyzed by HPLC analysis on a 15 cm×4.6 mm ID supelcosil LC-18 (Supelco)(3M) column, using a two solvent system at a flow rate of 1.4 mL total flow as follows: […] In this assay, the procedure of Example 14 is carried out as described. […] The results are calculated as in Example 14 and presented below: […]

[4] = system: LTB4 synthesis by rat glycogen-elicited polymorphonuclear leukocytes (PMN); test: inhibition of LTB4 synthesis by rat glycogen-elicited polymorphonuclear leukocytes; format: cell-based; details: Leukocyte
Procedure: Roy. Soc. Med., 74, 831 (1981)]. […] Accordingly, the specificity of action of PLA2 inhibitors can be determined by the activity of test compounds in this assay, which measures the ability of compounds to inhibit the synthesis of LTB4 by rat glycogen-elicited polymorphonuclear leukocytes (PMN) in the presence of exogenous substrate. […] The exudate is centrifuged at 400 xg for 10 minutes. The supernatant fluid is discarded and the cell pellet is resuspended to a concentration of 2.0×10^7 cells/mL in HBSS containing Ca^++ and Mg^++ and 10 μM L-cysteine. […] The reaction is terminated by centrifugation and pelleting cells. Supernatants are then analyzed by HPLC analysis on a 15 cm×4.6 mm ID supelcosil LC-18 (Supelco)(3M) column, using a two solvent system at a flow rate of 1.4 mL total flow as follows: Solvent A: 70:30 17.4 mM H3 PO4 :CH3 CN Solvent B. CH3 CN Gradient: (system is equilibrated with Solvent A) Percent solvent changes are accomplished in a linear fashion. […] 10^4 -2.0×10^4 dpm of eicosanoids of interest are injected in 90 μL EtOH cocktail. […] Results are expressed as percent inhibition at a given compound dose or as an IC50 value.

[5] = human synovial fluid, read-out: IC50 HSF

SMILES: CCCCC/C=C\C/C=C\C/C=C\C/C=C\CCCC(=O)O [Arachidonic Acid, reference compound]
- IC50 (Human Platelet PLA2): 8600 nM
- IC50 (Human Synovial PLA2): 3200 nM

SMILES: NC1=NN(c2cccc(C(F)(F)F)c2)CC1 [BW755C]
- ED50 [1]: < 10 mg/kg

SMILES: O=C(C#CCCCOc1ccc(Cl)cc1)C(F)(F)F [Example 1, 7-(4-Chlorophenoxy)-1,1,1-trifluoro-3-heptyn-2-one]
- inhibition at 50 µM (Human Platelet PLA2; at 50 μM, human platelet, read-out: % Inhibition HP): 54%
- % Inhibition 6-keto-PGF ([2]; 100 mg/kg p.o.): 15%
- % Inhibition LTC4 ([1]; 100 mg/kg p.o.): 32%
- inhibition at 10 µM [3]: 24%
- IC50 (Human Synovial PLA2; [5]): 490 nM
- inhibition at 10 µM [4]: 89.8%

SMILES: O=C(C#CCCCn1c2ccccc2c2ccccc21)C(F)(F)F [Example 2, 7-(9H-Carbazol-9-yl)-1,1,1-trifluoro-3-heptyn-2-one]
- inhibition at 10 µM (Human Platelet PLA2; human platelet): 7.2%
- IC50 (Human Synovial PLA2; [5]): 43 nM

SMILES: O=C(C#CCCCOc1ccc(F)cc1)C(F)(F)F [Example 3, 1,1,1-Trifluoro-7-(4-fluorophenoxy)-3-heptyn-2-one]
- IC50 (Human Synovial PLA2; [5]): 8900 nM

SMILES: CC(C)(C)c1ccc(OCCCC#CC(=O)C(F)(F)F)cc1 [Example 4, 7-[4-(1,1-Dimethylethyl)phenoxy]-1,1,1-trifluoro-3-heptyn-2-one]
- IC50 (Human Synovial PLA2; [5]): 200 nM

SMILES: COc1ccc(OCCCC#CC(=O)C(F)(F)F)cc1 [Example 5, 1,1,1-Trifluoro-7-(4-methoxyphenoxy)-3-heptyn-2-one]
- inhibition at 10 µM (Human Synovial PLA2; human synovial fluid): 38.7%

SMILES: O=C(C#CCCCN1c2cccc3cccc(c23)S1(=O)=O)C(F)(F)F [Example 6, 1,1,1-Trifluoro-7-(2H-naphth[1,8-cd]isothiazol-2-yl)-3-heptyn-2-one S,S-dioxide]
- inhibition at 10 µM (Human Synovial PLA2; human synovial fluid): 84.8%

SMILES: O=C(C#CCCCOc1ccc(Cl)cc1)C(F)(F)CCc1ccccc1 [Example 7, 9-(4-Chlorophenoxy)-3,3-difluoro-1-phenyl-5-nonyn-4-one]
- inhibition at 10 µM [3]: 40%
- IC50 (Human Synovial PLA2; [5]): 900 nM
- inhibition at 10 µM [4]: 72%

SMILES: O=C(C#CCCCOc1cccc(C(F)(F)F)c1)C(F)(F)F [Example 8, 1,1,1-Trifluoro-7-[3-(trifluoromethyl)phenoxy]-3-heptyn-2-one]
- inhibition at 10 µM (Human Synovial PLA2; human synovial fluid): 90.5%

SMILES: CC(C)(C#CC(=O)C(F)(F)F)CCOc1ccc(Cl)cc1 [Example 9, 7-(4-Chlorophenoxy)-5,5-dimethyl-1,1,1-trifluoro-3-heptyne-2-one]
- inhibition at 10 µM (Human Synovial PLA2; human synovial fluid): 19.8%

SMILES: O=C(C#CCCCCOc1ccc(Cl)cc1)C(F)(F)F [Example 10, 8-(4-Chlorophenoxy)-1,1,1-trifluoro-3-octyn-2-one]
- inhibition at 10 µM (Human Synovial PLA2; human synovial fluid): 94.2%

SMILES: O=C(C#CCCCOc1ccc(Cl)c2ccccc12)C(F)(F)F [Example 11, 7-[(4-Chloro-1-naphthalenyl)oxy]-1,1,1-trifluoro-3-heptyn-2-one]
- inhibition at 10 µM (Human Platelet PLA2; human platelet): 26.5%
- inhibition at 10 µM (Human Synovial PLA2; human synovial fluid): 94.6%

SMILES: CC(C)(C#CC(=O)C(F)(F)F)Oc1ccc(OC(F)(F)F)cc1 [Example 12, 1,1,1-Trifluoro-5-methyl-5-[4-(trifluoromethoxy)phenoxy]-3-hexyn-2-one]
- inhibition at 10 µM (Human Synovial PLA2; human synovial fluid): 58.8%

SMILES: CC(C)Cc1ccc(C(C)C(=O)O)cc1 (stereo not drawn) [Ibuprofen]
- ED50 ([2]; standard drugs): 7 mg/kg

SMILES: COc1ccc2c(c1)c(CC(=O)O)c(C)n2C(=O)c1ccc(Cl)cc1 [Indomethacin]
- ED50 [2]: 0.126 mg/kg

SMILES: CC(=CCCC1=CCC(C2=CC(=O)OC2O)OC1O)CCC1=C(C)CCCC1(C)C (stereo not drawn) [Monoalide, reference compound]
- IC50 (Human Platelet PLA2): 25200 nM
- IC50 (Human Synovial PLA2): 140 nM

SMILES: O=C1CCN(c2ccccc2)N1 [Phenidone]
- ED50 ([2]; standard drugs): < 30 mg/kg
- ED50 [1]: 24 mg/kg

— US5070207A, “Phospholipase A2 inhibitors” (American Home Products Corporation, priority 1990, dated 1991)
